One block for each compound: values may come before it.
Experiment: logP by HPLC (EEC Directive 79/831 Annex V. A8, gradient method)
Assay type: physicochemical
Conditions: acetonitrile/0.1% aqueous phosphoric acid

- chromatographic logP: 2.4
SMILES: CCC(C)c1c(Cl)nc2ncnn2c1Cl (stereo not drawn) [5,7-dichloro-6-sec-butyl[1,2,4]triazolo[1,5-a]pyrimidine]

- chromatographic logP: 0.7
SMILES: CCC(C)c1c(O)n2ncnc2[nH]c1=O (stereo not drawn) [6-sec-butyl-7-hydroxy[1,2,4]triazolo[1,5-a]pyrimidin-5(4H)-one]

SMILES: C[Si](C)(C)CNc1c(-c2ccc(F)cc2Cl)c(Cl)nc2ncnn12 [Example 1]
- chromatographic logP: 3.61

SMILES: CC(Nc1c(-c2c(F)cc(F)cc2F)c(Cl)nc2ncnn12)[Si](C)(C)C (stereo not drawn) [Example 2]
- chromatographic logP: 3.71

SMILES: C[Si](C)(C)CNc1c(-c2c(F)cccc2Cl)c(Cl)nc2ncnn12 [Example 3]
- logP: 3.43

SMILES: C[Si](C)(C)CNc1c(-c2c(F)cc(F)cc2F)c(Cl)nc2ncnn12 [Example 4]
- chromatographic logP: 3.39

SMILES: CC(Nc1c(-c2c(F)cccc2Cl)c(Cl)nc2ncnn12)[Si](C)(C)C (stereo not drawn) [Example 5]
- logP: 3.79

SMILES: CC(Nc1c(-c2ccc(F)cc2Cl)c(Cl)nc2ncnn12)[Si](C)(C)C (stereo not drawn) [Example 6]
- logP: 3.95

SMILES: CC(Nc1c(-c2ccccc2Cl)c(Cl)nc2ncnn12)[Si](C)(C)C (stereo not drawn) [Example 7]
- logP: 3.83

SMILES: CC(C)c1nc2nc(Cl)c(-c3ncc(C(F)(F)F)cc3Cl)c(NC[Si](C)(C)C)n2n1 [Example 8]
- logP: 4.51

SMILES: CC(C)c1nc2nc(Cl)c(-c3ncncc3F)c(NC(C)[Si](C)(C)C)n2n1 (stereo not drawn) [Example 9]
- logP: 3.61

SMILES: CC(Nc1c(-c2ncccc2C(F)(F)F)c(Cl)nc2ncnn12)[Si](C)(C)C (stereo not drawn) [Example 10]
- logP: 3.06

SMILES: CC(Nc1c(-c2c(F)cccc2Cl)c(Cl)nc2nc(C3CC3)nn12)[Si](C)(C)C (stereo not drawn) [Example 11]
- logP: 4.65

SMILES: C[Si](C)(C)CNc1c(-c2c(F)cccc2Cl)c(Cl)nc2nc(C3CC3)nn12 [Example 12]
- logP: 4.22

SMILES: C[Si](C)(C)CNc1c(-c2cc(F)ccc2F)c(Cl)nc2nc(C3CC3)nn12 [Example 13]
- chromatographic logP: 3.99

SMILES: CC(Nc1c(-c2cc(F)ccc2F)c(Cl)nc2nc(C3CC3)nn12)[Si](C)(C)C (stereo not drawn) [Example 14]
- chromatographic logP: 4.35

SMILES: CC(C)c1nc2nc(Cl)c(-c3cc(F)ccc3F)c(NC(C)[Si](C)(C)C)n2n1 (stereo not drawn) [Example 15]
- chromatographic logP: 4.58

SMILES: CC(C)c1nc2nc(Cl)c(-c3cc(F)ccc3F)c(NC[Si](C)(C)C)n2n1 [Example 16]
- chromatographic logP: 4.21

SMILES: Cc1nc2nc(Cl)c(-c3cc(F)ccc3F)c(NC(C)[Si](C)(C)C)n2n1 (stereo not drawn) [Example 17]
- chromatographic logP: 3.73

SMILES: Cc1nc2nc(Cl)c(-c3cc(F)ccc3F)c(NC[Si](C)(C)C)n2n1 [Example 18]
- chromatographic logP: 3.4

SMILES: CC(Nc1c(-c2ncncc2F)c(Cl)nc2nc(C3CC3)nn12)[Si](C)(C)C (stereo not drawn) [Example 19]
- logP: 2.99

SMILES: C[Si](C)(C)CNc1c(-c2ccccc2Cl)c(Cl)nc2nc(C3CC3)nn12 [Example 20]
- logP: 4.23

SMILES: CC(Nc1c(-c2ccccc2Cl)c(Cl)nc2nc(C3CC3)nn12)[Si](C)(C)C (stereo not drawn) [Example 21]
- logP: 4.66

SMILES: C[Si](C)(C)CNc1c(-c2ncncc2F)c(Cl)nc2nc(C3CC3)nn12 [Example 22]
- logP: 3.02

SMILES: CC(Nc1c(-c2ncncc2Cl)c(Cl)nc2ncnn12)[Si](C)(C)C (stereo not drawn) [Example 23]
- logP: 2.70

SMILES: C[Si](C)(C)CNc1c(-c2ncncc2Cl)c(Cl)nc2ncnn12 [Example 24]
- logP: 2.44

SMILES: CCC(C)c1c(Cl)nc2ncnn2c1NC[Si](C)(C)C (stereo not drawn) [Example 26, 5-chloro-6-sec-butyl-7-trimethylsilylmethylamino[1,2,4]triazolo[1,5-a]pyrimidine]
- chromatographic logP: 3.34

SMILES: Cc1nc2nc(Cl)c(-c3ncncc3F)c(NC[Si](C)(C)C)n2n1 [Example 27]
- logP: 2.43

SMILES: Cc1nc2nc(Cl)c(-c3ncncc3F)c(NC(C)[Si](C)(C)C)n2n1 (stereo not drawn) [Example 28]
- logP: 2.73

SMILES: C[Si](C)(C)CNc1c(-c2cc(F)ccc2F)c(Cl)nc2ncnn12 [Example 39]
- chromatographic logP: 3.26

SMILES: CC(Nc1c(-c2cc(F)ccc2F)c(Cl)nc2ncnn12)[Si](C)(C)C (stereo not drawn) [Example 40]
- chromatographic logP: 3.57

SMILES: C[Si](C)(C)CNc1c(-c2ncncc2F)c(Cl)nc2ncnn12 [Example 41]
- logP: 2.28

SMILES: CC(Nc1c(-c2ncncc2F)c(Cl)nc2ncnn12)[Si](C)(C)C (stereo not drawn) [Example 42]
- logP: 2.57

— patent US20070293514A1, “Triazolopyrimidines” (priority 2003, published 2007)
